# In US5185319A, “Stabilization of organic compounds” (National Research Development Corporation, priority 1989, dated 1993):
# What was measured:
# [1] = molecular target: porcine insulin (Sus scrofa, UniProt P01315); assay: Stability of insulin in solution with chelating agent, reverse phase HPLC; assay type: physicochemical; conditions: pH 7.0 solution; for effect on stability of insulin (amount of insulin present as percentage of the original amount): 100 μM chelating agent, 4, 8 and 12 weeks
# Sequence of porcine insulin (P01315 25-54 limits assumed): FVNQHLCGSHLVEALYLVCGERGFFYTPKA
# Sequence of porcine insulin (P01315 88-108 limits assumed): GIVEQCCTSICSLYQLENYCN
# Method: A solution was prepared corresponding to that described in Example 1 containing porcine insulin and being pyrogen-free but not sterile. For comparative purposes a further solution was prepared in which the hydroxypyridone was replaced by the alternative chelating agent 3-hydroxy-2-methyl-4-pyrone.
# The solutions were incubated at either 4° C. or 37° C. and the stability of the insulin was studied over a period of 12 weeks through use of the reverse phase HPLC method described by Seipke et al, Angew. Chem. Int. Ed. Engl., 1986, 25, 535-552 and by Grau, Diabetologia, 1985, 28, 458-463. The amount of insulin present in the solution at 4, 8 and 12 weeks was then calculated as a percentage of the original amount present.
# [2] = system: insulin; assay: Investigation of chelating agents for stabilization of insulin; assay type: physicochemical
effect on stability of insulin (amount of insulin present as percentage of the original amount) ([1]; incubated at 4° C.),effect on stability of insulin (amount of insulin present as percentage of the original amount) ([1]; incubated at 37° C.),stabilizing effect on insulin [2],"degradation of insulin over the whole period of 12 weeks ([1]; incubated at 4° C., 100 μM chelating agent)",SMILES
destabilises insulin,destabilises insulin,no stabilizing effect,–,Cc1occc(=O)c1O [3-hydroxy-2-methyl-4-pyrone]
–,–,no stabilizing effect,–,O=C(O)CN(CCN(CC(=O)O)CC(=O)O)CC(=O)O [ethylene diamine tetra-acetic acid]
stabilises insulin,"stabilises insulin, to some extent",–,no degradation was observed,COCCn1ccc(=O)c(O)c1C [3-hydroxy-1-(2'-methoxyethyl)-2-methylpyrid-4-one]
